Activity calls are given as the source filed them. No cut-off for these calls is given here.
Legend:
[1] = target: Alpha-synuclein (Homo sapiens) (UniProt P37840); assay: Induction of alpha-synuclein aggregation in PBS buffer assessed as transition of alpha-synuclein from natively unfolded monomer to cross-beta-sheet conformation after 48 hrs by CD spectroscopy
[2] = target: Alpha-synuclein (Homo sapiens) (UniProt P37840); assay: Induction of alpha-synuclein aggregation in PBS buffer assessed as fluorescence after 72 hrs by Thioflavin T fluorescence assay
[3] = target: Alpha-synuclein (Homo sapiens) (UniProt P37840); assay: Induction of alpha-synuclein aggregation in PBS buffer assessed as formation of alpha-synuclein fibrils after 48 hrs by electron microscopy
[4] = target: Alpha-synuclein (Homo sapiens) (UniProt P37840); assay: Induction of alpha-synuclein aggregation in PBS buffer assessed as fluorescence after 44 to 305 hrs in presence of competitive Schiff-base inhibitor aminoguanidine by Thioflavin T fluorescence assay
[5] = Cytotoxicity against human SH-SY5Y cells overexpressing alpha-synuclein after 48 hrs by LDH assay; type: cell-based; conditions: read-out: LD50
[6] = target: Alpha-synuclein (Homo sapiens) (UniProt P37840); assay: Induction of alpha-synuclein aggregation in PBS buffer assessed as alpha-synuclein monomer depletion after 96 hrs by size exclusion chromatography
[7] = target: Alpha-synuclein (Homo sapiens) (UniProt P37840); assay: Induction of alpha-synuclein aggregation in PBS buffer assessed as transition of alpha-synuclein from natively unfolded monomer to cross-beta-sheet conformation after 330 hrs by CD spectroscopy
[8] = target: Alpha-synuclein (Homo sapiens) (UniProt P37840); assay: Induction of alpha-synuclein aggregation in PBS buffer assessed as transition of alpha-synuclein from natively unfolded monomer to cross-beta-sheet conformation after 96 hrs by CD spectroscopy
[9] = target: Alpha-synuclein (Homo sapiens) (UniProt P37840); assay: Induction of alpha-synuclein aggregation in PBS buffer assessed as fluorescence after 48 hrs by Thioflavin T fluorescence assay
[10] = target: Alpha-synuclein (Homo sapiens) (UniProt P37840); assay: Induction of alpha-synuclein aggregation in PBS buffer assessed as fluorescence after 330 hrs by Thioflavin T fluorescence assay
[11] = target: Alpha-synuclein (Homo sapiens) (UniProt P37840); assay: Induction of alpha-synuclein aggregation in PBS buffer assessed as formation of alpha-synuclein fibrils after 96 hrs by electron microscopy
[12] = Cytotoxicity against human SH-SY5Y cells overexpressing alpha-synuclein after 48 hrs by MTT assay; type: cell-based; conditions: read-out: LD50
[13] = target: Alpha-synuclein (Homo sapiens) (UniProt P37840); assay: Induction of alpha-synuclein aggregation in PBS buffer assessed as alpha-synuclein monomer depletion after 48 hrs by size exclusion chromatography
[14] = target: Alpha-synuclein (Homo sapiens) (UniProt P37840); assay: Induction of alpha-synuclein aggregation in PBS buffer assessed as fluorescence after 96 hrs by Thioflavin T fluorescence assay
[15] = target: Alpha-synuclein (Homo sapiens) (UniProt P37840); assay: Induction of alpha-synuclein aggregation in PBS buffer assessed as transition of alpha-synuclein from natively unfolded monomer to cross-beta-sheet conformation after 72 hrs by CD spectroscopy
[16] = target: Alpha-synuclein (Homo sapiens) (UniProt P37840); assay: Induction of alpha-synuclein aggregation in PBS buffer assessed as alpha-synuclein monomer depletion after 72 hrs by size exclusion chromatography
SH-SY5Y [17] = assay: Cytotoxicity against human SH-SY5Y cells overexpressing alpha-synuclein at 20 uM after 48 hrs by MTT assay; type: cell-based
SH-SY5Y [18] = assay: Cytotoxicity against human SH-SY5Y cells overexpressing alpha-synuclein at 20 uM after 48 hrs by LDH assay; type: cell-based

Structure (SMILES)	Activity [1]	Activity [2]	Activity [3]	Activity [4]	CC50 at 48 h [5]	Activity [6]	Activity [7]	Activity [8]	Activity [9]	Activity [10]	Activity [11]	CC50 at 48 h [12]	Activity [13]	Activity [14]	Activity [15]	Activity [16]	Activity (SH-SY5Y [17])	Activity (SH-SY5Y [18])
CC(C)CCC[C@@H](C)[C@H]1CC[C@H]2[C@H](CC(=O)O)[C@@H]([C@@]3(C)CC[C@H](O)CC3=O)CC[C@]12C	40%	330 a.u.	Active	Active	55 µM	70%	100%	60%	220 a.u.	500 a.u.	Active	55 µM	50%	410 a.u.				
CC(C)CCC[C@@H](C)[C@H]1CC[C@H]2[C@@H]3CC=C4C[C@@H](O)CC[C@]4(C)[C@H]3CC[C@]12C [CHOLESTEROL]	0%	25 a.u.				70%	100%	4%	0 a.u.	120 a.u.			2%	30 a.u.	4%	19%	Non-toxic	Non-toxic
